In patent US9255090B2, “Heterocyclyl derivatives and their use as prostaglandin D2 receptor modulators” (Actelion Pharmaceuticals Ltd., priority 2012, dated 2016):

Experiments:
[1] = tested on: eosinophils; test: Eosinophil shape change assay with human plasma; format: cell-based; settings: human plasma (50%), PGD2 100 nM activation, antagonistic activity
Method in brief: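 Human polymorphonuclear cells stained with anti-CD49d-APC, combined with compound-preincubated human plasma (50% of final volume, 4×10^6 cells/ml) for 10 min at 37° C., then stimulated 5 min with 100 nM PGD2 and fixed. Flow cytometry scored percent eosinophils with increased forward scatter.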

[2] = molecular target: hCRTH2 receptor (Homo sapiens (Human), UniProt Q9Y5Y4); test: hCRTH2 receptor membranes radioligand (3H-PGD2) displacement assay; format: binding; settings: 3H-PGD2 radioligand displacement, HEK293-hCRTH2 membranes
Sequence of hCRTH2 receptor (Q9Y5Y4 whole entry): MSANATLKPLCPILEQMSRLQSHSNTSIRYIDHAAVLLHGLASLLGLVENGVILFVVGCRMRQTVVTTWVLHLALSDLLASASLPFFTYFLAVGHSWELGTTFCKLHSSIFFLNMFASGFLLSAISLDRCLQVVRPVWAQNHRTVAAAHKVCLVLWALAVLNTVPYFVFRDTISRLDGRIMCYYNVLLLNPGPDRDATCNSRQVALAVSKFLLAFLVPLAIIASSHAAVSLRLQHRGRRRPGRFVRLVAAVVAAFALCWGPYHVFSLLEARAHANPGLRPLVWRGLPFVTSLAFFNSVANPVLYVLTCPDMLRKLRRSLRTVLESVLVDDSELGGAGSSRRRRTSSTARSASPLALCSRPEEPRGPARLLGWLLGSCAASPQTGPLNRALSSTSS
Method in brief: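 Compound was first mixed with buffer, then 3H-PGD2 was added at 2.5 nM, and the reaction was started with hCRTH2 membranes from HEK293 cells at 20 μg/well. After 90 min at room temperature, mixtures were filtered and washed with ice-cold buffer, and retained radioactivity was counted.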

Compound	IC50 ([1]; Homo sapiens, Eosinophil)	IC50 [2]	IC50 [1]
CCOc1cc(CC(=O)O)ccc1-c1ccc(F)c2c1CN(C(=O)CC1OCCc3ccccc31)CC2 (racemic) [Example 229]	15 nM	0.7 nM	–
O=C(O)Cc1ccc(Cl)c(-c2ccc(F)c3c2CN(C(=O)[C@@H]2C[C@H]2c2ccccc2)CC3)c1 [Example 28, {4-Chloro-3-[5-fluoro-2-((1R,2R)-2-phenyl-cyclopropanecarbonyl)-1,2,3,4-tetrahydro-isoquinolin-8-yl]-phenyl}-acetic acid]	42 nM	10 nM	–
CCOc1ccc(CC(=O)O)cc1-c1ccc(F)c2c1CN(C(=O)OCc1cc(Cl)ccc1F)CC2 [Example 402, 8-(5-Carboxymethyl-2-ethoxy-phenyl)-5-fluoro-3,4-dihydro-1H-isoquinoline-2-carboxylic acid 5-chloro-2-fluoro-benzyl ester]	20 nM	4.3 nM	–
CCOc1ccc(CC(=O)O)cc1-c1ccc(F)c2c1CN(C(=O)CC(C)c1ccccn1)CC2 (stereo not drawn) [Example 204, {4-Ethoxy-3-[5-fluoro-2-(3-pyridin-2-yl-butyryl)-1,2,3,4-tetrahydro-isoquinolin-8-yl]-phenyl}-acetic acid]	–	2.9 nM	30 nM
CCOc1ccc(CC(=O)O)cc1-c1ccc(F)c2c1CN(C(=O)CC(C)c1cccc(F)c1)CC2 (racemic) [Example 279]	45 nM	6.9 nM	–
CCOc1cc(CC(=O)O)ccc1-c1ccc(F)c2c1CN(C(=O)CCc1cccc(C)n1)CC2 [Example 321, (3-Ethoxy-4-{5-fluoro-2-[3-(6-methyl-pyridin-2-yl)-propionyl]-1,2,3,4-tetrahydro-isoquinolin-8-yl}-phenyl)-acetic acid]	20 nM	7.3 nM	–
COc1ccc(OCC(=O)O)cc1-c1ccc(F)c2c1CN(C(=O)OCc1ccccc1)CC2 [Example 177, 8-(5-Carboxymethoxy-2-methoxy-phenyl)-5-fluoro-3,4-dihydro-1H-isoquinoline-2-carboxylic acid benzyl ester]	539 nM	21.3 nM	–
CCOc1ccc(CC(=O)O)cc1-c1ccc(F)c2c1CN(C(=O)NCc1ccccc1)CC2 [Example 438, [3-(2-Benzylcarbamoyl-5-fluoro-1,2,3,4-tetrahydro-isoquinolin-8-yl)-4-ethoxy-phenyl]-acetic acid]	14 nM	3.7 nM	–
COc1ccc(CC(=O)O)cc1-c1ccc(F)c2c1CN(C(=O)OCc1ccccc1)CC2 [Example 157, 8-(5-Carboxymethyl-2-methoxy-phenyl)-5-fluoro-3,4-dihydro-1H-isoquinoline-2-carboxylic acid benzyl ester]	153 nM	11.7 nM	–
COc1ccc(CC(=O)O)cc1-c1ccc(F)c2c1CN(C(=O)CC1OCCc3ccccc31)CC2 (racemic) [Example 257]	35 nM	2.2 nM	–
CCOc1ccc(CC(=O)O)cc1-c1ccc(F)c2c1CN(C(=O)OCCC(C)C)CC2 [Example 370, 8-(5-Carboxymethyl-2-ethoxy-phenyl)-5-fluoro-3,4-dihydro-1H-isoquinoline-2-carboxylic acid 3-methyl-butyl ester]	76 nM	7 nM	–
COc1ccc(CC(=O)O)cc1-c1ccc(F)c2c1CN(C(=O)NCc1ccc(F)cc1)CC2 [Example 132, {3-[5-Fluoro-2-(4-fluoro-benzylcarbamoyl)-1,2,3,4-tetrahydro-isoquinolin-8-yl]-4-methoxy-phenyl}-acetic acid]	> 1000 nM	15.1 nM	–
CCOc1ccc(CC(=O)O)cc1-c1ccc(F)c2c1CN(C(=O)O[C@@H](C)c1ccccc1)CC2 [Example 368, 8-(5-Carboxymethyl-2-ethoxy-phenyl)-5-fluoro-3,4-dihydro-1H-isoquinoline-2-carboxylic acid (S)-1-phenyl-ethyl ester]	46 nM	5.5 nM	–
O=C(O)Cc1ccc(OCCF)c(-c2ccc(F)c3c2CN(C(=O)OCc2ccccc2)CC3)c1 [Example 422, 8-[5-Carboxymethyl-2-(2-fluoro-ethoxy)-phenyl]-5-fluoro-3,4-dihydro-1H-isoquinoline-2-carboxylic acid benzyl ester]	8 nM	8.5 nM	–
CCOc1cc(CC(=O)O)ccc1-c1ccc(F)c2c1CN(C(=O)OCc1ccccc1)CC2 [Example 410, 8-(4-Carboxymethyl-2-ethoxy-phenyl)-5-fluoro-3,4-dihydro-1H-isoquinoline-2-carboxylic acid benzyl ester]	13 nM	26 nM	–
CCOc1ccc(CC(=O)O)cc1-c1ccc(F)c2c1CN(C(=O)CC(C)(C)c1ccccc1)CC2 [Example 225, {4-Ethoxy-3-[5-fluoro-2-(3-methyl-3-phenyl-butyryl)-1,2,3,4-tetrahydro-isoquinolin-8-yl]-phenyl}-acetic acid]	37 nM	11.7 nM	–
CCOc1ccc(CC(=O)O)cc1-c1ccc(F)c2c1CN(C(=O)OCC(C)C)CC2 [Example 377, 8-(5-Carboxymethyl-2-ethoxy-phenyl)-5-fluoro-3,4-dihydro-1H-isoquinoline-2-carboxylic acid isobutyl ester]	123 nM	3.4 nM	–
COc1ccc(CC(=O)O)cc1-c1ccc(Cl)c2c1CN(C(=O)[C@@H]1C[C@H]1c1ccccc1)CC2 [Example 71, {3-[5-Chloro-2-((1R,2R)-2-phenyl-cyclopropanecarbonyl)-1,2,3,4-tetrahydro-isoquinolin-8-yl]-4-methoxy-phenyl}-acetic acid]	22 nM	1.68 nM	–
CCOc1ccc(CC(=O)O)cc1-c1ccc(F)c2c1CN(C(=O)OCCc1ccccc1)CC2 [Example 373, 8-(5-Carboxymethyl-2-ethoxy-phenyl)-5-fluoro-3,4-dihydro-1H-isoquinoline-2-carboxylic acid phenethyl ester]	42 nM	1.7 nM	–
COc1ccc(CC(=O)O)cc1-c1ccc(F)c2c1CN(C(=O)CC(C)(C)c1ccc(F)cc1)CC2 [Example 363, (3-{5-Fluoro-2-[3-(4-fluoro-phenyl)-3-methyl-butyryl]-1,2,3,4-tetrahydro-isoquinolin-8-yl}-4-methoxy-phenyl)-acetic acid]	20 nM	2.4 nM	–
CCOc1ccc(CC(=O)O)cc1-c1ccc(F)c2c1CN(C(=O)OCc1cnccn1)CC2 [Example 365, 8-(5-Carboxymethyl-2-ethoxy-phenyl)-5-fluoro-3,4-dihydro-1H-isoquinoline-2-carboxylic acid pyrazin-2-ylmethyl ester]	32 nM	3.9 nM	–
CCOc1ccc(CC(=O)O)cc1-c1ccc(F)c2c1CN(C(=O)OC[C@H](C)c1ccccc1)CC2 [Example 374, 8-(5-Carboxymethyl-2-ethoxy-phenyl)-5-fluoro-3,4-dihydro-1H-isoquinoline-2-carboxylic acid (R)-2-phenyl-propyl ester]	28 nM	4.2 nM	–
COc1ccc(CC(=O)O)cc1-c1ccc(F)c2c1CN(C(=O)[C@@H]1C[C@H]1c1ccc(F)cc1)CC2 (racemic) [Example 1, (±)-(3-{5-Fluoro-2-[trans-2-(4-fluoro-phenyl)-cyclopropanecarbonyl]-1,2,3,4-tetrahydro-isoquinolin-8-yl}-4-methoxy-phenyl)-acetic acid]	8 nM	1.99 nM	–
CCOc1cc(CC(=O)O)ccc1-c1ccc(F)c2c1CN(C(=O)CC1COc3ccccc31)CC2 (racemic) [Example 235]	20 nM	0.3 nM	–
